Each structure is given as a SMILES string. Where two headings read alike, the source gives them in different places.

In one test the target is T1, PRMT5 (Homo sapiens, UniProt O14744).
T1 construct: seeded with 4000 MCF-7 cells in 30 μl media; endogenous in cells; host or cells: MCF-7 cells
Briefly: PRMT5 Cell Target Engagement (TE) Assay. In kind it is cell-based. The following applies: MCF-7 cells, treated for 3 days, symmetric dimethylation of arginine (SDMA) by high content imaging. The method, boiled down: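 Readout is single-cell nuclear symmetric-dimethylarginine immunofluorescence (Alexa488), normalized to DMSO-treated cells. Compounds were applied to MCF-7 cells for 3 days at 37 °C, top concentration 10000 nM in 1:3 steps over ten points; curves fitted with 4-parameter robust fit.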

In test [1] the target is T2, PRMT5-MEP50 enzyme complex (Homo sapiens, UniProt O14744).
T2 construct: Full-length (FL)-PRMT5-MEP50 enzyme complex (recombinant proteins from baculovirus-transfected Sf21 cells: FL-PRMT5; MW=73837 kDa and FL-MEP50; MW=38614); made in house; host or cells: baculovirus-transfected Sf21 cells
T2 sequence (O14744 whole entry): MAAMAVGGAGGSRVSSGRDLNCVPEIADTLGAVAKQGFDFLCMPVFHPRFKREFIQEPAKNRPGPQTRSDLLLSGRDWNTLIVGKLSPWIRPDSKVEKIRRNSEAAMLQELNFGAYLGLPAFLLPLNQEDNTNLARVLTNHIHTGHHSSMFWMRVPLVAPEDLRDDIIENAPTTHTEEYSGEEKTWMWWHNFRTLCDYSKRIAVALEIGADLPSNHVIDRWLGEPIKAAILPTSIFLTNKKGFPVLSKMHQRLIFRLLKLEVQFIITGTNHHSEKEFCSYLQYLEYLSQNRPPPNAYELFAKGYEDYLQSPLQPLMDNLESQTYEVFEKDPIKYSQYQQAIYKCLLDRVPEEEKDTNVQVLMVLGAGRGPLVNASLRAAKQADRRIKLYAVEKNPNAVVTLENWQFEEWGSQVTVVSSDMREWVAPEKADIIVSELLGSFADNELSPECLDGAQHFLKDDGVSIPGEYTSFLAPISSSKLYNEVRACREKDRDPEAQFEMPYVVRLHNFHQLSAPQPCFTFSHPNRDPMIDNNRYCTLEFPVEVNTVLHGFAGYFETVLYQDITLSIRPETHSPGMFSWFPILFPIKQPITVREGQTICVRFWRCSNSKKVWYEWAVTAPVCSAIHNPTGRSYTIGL
T2 sequence (Q9BQA1 whole entry partner): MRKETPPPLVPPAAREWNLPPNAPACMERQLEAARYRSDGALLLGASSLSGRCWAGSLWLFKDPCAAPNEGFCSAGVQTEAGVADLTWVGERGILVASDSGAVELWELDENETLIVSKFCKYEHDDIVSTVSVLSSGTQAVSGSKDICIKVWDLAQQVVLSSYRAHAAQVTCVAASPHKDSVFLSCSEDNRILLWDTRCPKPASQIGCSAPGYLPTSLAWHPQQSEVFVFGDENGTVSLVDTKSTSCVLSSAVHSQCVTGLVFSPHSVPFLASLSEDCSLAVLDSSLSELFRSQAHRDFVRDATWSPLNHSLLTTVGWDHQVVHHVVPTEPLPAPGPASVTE
Briefly: PRMT5-MEP50 Enzyme Methylation Assay (Version A). In kind it is biochemical. The protocol:
PRMT5-MEP50 Enzyme Methylation Assay (Version A)
PRMT5-MEP50 biochemical assay is a direct measurement of the methylation activity of the enzyme complex on a short peptide substrate derived from the N-terminus of H4 histone. Methylation experiment was performed with recombinant PRMT5-MEP50 protein complex. The assessment of inhibitory effect of small molecules was measured by the effectiveness of the compounds to inhibit this reaction (EC50).
In this assay, the potency (EC50) of each compound was determined from a twenty-point (1:2 serial dilution; top compound concentration of 100000 nM) titration curve using the following outlined procedure. To each well of a white ProxiPlus 384 well-plate, 100 nL of compound (1% DMSO in final assay volume of 10 μL) was dispensed, followed by the addition of 8 μL of 1× assay buffer (50 mM Bicine pH 8.0, 1 mM DTT, 0.004% Tween20, 0.01% BSA) containing 1.25 nM of Full-length (FL)-PRMT5-MEP50 enzyme complex (recombinant proteins from baculovirus-transfected Sf21 cells: FL-PRMT5; MW=[…] and FL-MEP50; MW=38614) and 1 μL of 150 μM S-(5′-Adenosyl)-L-Methionine Chloride (SAM). A plate was sealed and placed in a 37° C. humidified chamber for a 60 minutes pre-incubation with compound. Subsequently, each reaction was initiated by the addition of 1 μL 1× assay buffer containing 750 nM biotinylated H4R3 (MeI) peptide. The final reaction in each well of 10 μL consists of 1.0 nM PRMT5-MEP50, 75 nM biotinylated-peptide, and 15 μM SAM. Methylation reactions were allowed to proceed for 150 minutes in a sealed plate at 37° C. Reactions were immediately quenched by the addition of 1 μL of 5% formic acid. A plate was then frozen and shipped to SAMDI™ Tech Inc. to determine the percent conversion from H4R3 (MeI) to H4R3 (Me2). Dose-response curves were generated by plotting percent effect (% product conversion; Y-axis) vs. Log 10 compound concentrations (X-axis). EC50 values were determined by non-linear regression according to models for either sigmoidal (4 parameters) or biphasic (7 parameters) dose-response curves.

The mark [2] stands for this setting: only one EC50 shown: 4 parameters single site sigmoidal model, 60 min pre-incubation with SAM, read-out: Enzyme Methylation Assay Version A (EC50).
The mark [3] stands for this setting: first of two EC50s: 7 parameters biphasic model, read-out: Enzyme Methylation Assay Version A (EC50_1).
Setting [4] is: second of two EC50s: 7 parameters biphasic model, read-out: Enzyme Methylation Assay Version A (EC50_2).

T1 sequence (O14744 whole entry): as the sequence (O14744 whole entry) above
T1 sequence (Q9BQA1 whole entry partner): as the sequence (Q9BQA1 whole entry partner) above

Regarding `CN(C)C(=O)N1CCC(Nc2cc(C(=O)N3CC[C@H](N4CCc5ccccc5C4)[C@@H](O)C3)c(F)cn2)CC1` [Example 110, 4-((4-((3S,4S)-4-(3,4-dihydroisoquinolin-2(1H)-yl)-3-hydroxypiperidine-1-carbonyl)-5-fluoropyridin-2-yl)amino)-N,N-dimethylpiperidine-1-carboxamide], the EC50 at PRMT5 worked out at 8.1 nM; in test [1] (setting [2]), 1.4 nM.
Taken in the same sequence, the figures for `O=C(c1cn2cc(Br)c(C3CC3)nc2n1)N1CC[C@H](N2CCc3ccccc3C2)[C@@H](O)C1` [Example 78, (6-bromo-7-cyclopropylimidazo[1,2-a]pyrimidin-2-yl)[(3S,4S)-4-(3,4-dihydroisoquinolin-2(1H)-yl)-3-hydroxypiperidin-1-yl]methanone] were 21 nM and 0.7 nM.
Taken in the same sequence, the figures for `CC1(C)CC1(C#N)c1cnc2nc(C(=O)N3CC[C@H](N4CCc5ccccc5C4)[C@@H](O)C3)cn2c1` (single isomer, unassigned) [Example 128] were 1.1 nM and 0.3 nM.
For `O=C(c1cn2cc(Cl)cc(Br)c2n1)N1CC[C@H](N2CCc3ccccc3C2)[C@@H](O)C1` [Example 138, (8-bromo-6-chloroimidazo[1,2-a]pyridin-2-yl)[(3S,4S)-4-(3,4-dihydroisoquinolin-2(1H)-yl)-3-hydroxypiperidin-1-yl]methanone], the EC50 at PRMT5 amounted to 17 nM; in test [1] (setting [3]), 1.1 nM; in test [1] (setting [4]) it was 39 nM.
With `O=C(c1cn2cc(Br)cnc2n1)N1CC[C@H](N2CCc3ccccc3C2)[C@@H](O)C1` [Example 71, (6-bromoimidazo[1,2-a]pyrimidin-2-yl)[(3S,4S)-4-(3,4-dihydroisoquinolin-2(1H)-yl)-3-hydroxypiperidin-1-yl]methanone], the EC50 on PRMT5 came to 10 nM; in test [1] (setting [2]), 1.1 nM.
With `O=C1Nc2cc(C(=O)N3CC[C@H](N4CCc5ccccc5C4)[C@@H](O)C3)ccc2OC1C1CC1` (single isomer, unassigned) [Example 81], the EC50 on PRMT5 came to 59 nM; in test [1] (setting [3]) it was 1.6 nM; in test [1] (setting [4]), 5010 nM.
Taken in the same sequence, the figures for `O=C(c1ccnc(OC(F)F)c1)N1CC[C@H](N2CCc3ccccc3C2)[C@@H](O)C1` [Example 53, (2-(difluoromethoxy)pyridin-4-yl)((3S,4S)-4-(3,4-dihydroisoquinolin-2(1H)-yl)-3-hydroxypiperidin-1-yl)methanone] were greater than 10000 nM, roughly 28 nM and greater than 10000 nM.
On to `CCOc1cnc(NC2CCN(C(C)=O)CC2)cc1C(=O)N1CC[C@H](N2CCc3ccccc3C2)[C@@H](O)C1` [Example 107, 1-(4-((4-((3S,4S)-4-(3,4-dihydroisoquinolin-2(1H)-yl)-3-hydroxypiperidine-1-carbonyl)-5-ethoxypyridin-2-yl)amino)piperidin-1-yl)ethan-1-one], for which the EC50 on PRMT5 is 7.9 nM; in test [1] (setting [2]), 2.1 nM.
`COC(C)c1cc(Br)cn2cc(C(=O)N3CC[C@H](N4CCc5ccccc5C4)[C@@H](O)C3)nc12` (single isomer, unassigned) [Example 68, (6-bromo-8-((R or S)-1-methoxyethyl)imidazo[1,2-a]pyridin-2-yl)((3S,4S)-4-(3,4-dihydroisoquinolin-2(1H)-yl)-3-hydroxypiperidin-1-yl)methanone]: the EC50 amounted to 2.2 nM on PRMT5 and 0.4 nM in test [1] (setting [2]).
In the case of `CCN1CCNc2cc(C(=O)N3CC[C@H](N4CCc5ccccc5C4)[C@@H](O)C3)ccc2C1=O` [Example 64, 8-((3S,4S)-4-(3,4-dihydroisoquinolin-2(1H)-yl)-3-hydroxypiperidine-1-carbonyl)-4-ethyl-1,2,3,4-tetrahydro-5H-benzo[e][1,4]diazepin-5-one], the EC50 came to 45 nM at PRMT5, 1.9 nM in test [1] (setting [3]) and 1660 nM in test [1] (setting [4]).
Take `O=C(c1ccc2c(O)c(CC(F)(F)F)cnc2c1)N1CC[C@H](N2CCc3ccccc3C2)[C@@H](O)C1` [Example 126, ((3S,4S)-4-(3,4-dihydroisoquinolin-2(1H)-yl)-3-hydroxypiperidin-1-yl)(4-hydroxy-3-(2,2,2-trifluoroethyl)quinolin-7-yl)methanone]: the EC50 on PRMT5 turned out to be 69 nM; in test [1] (setting [3]), 1.1 nM; in test [1] (setting [4]), 1330 nM.
The matching figures for `N#CC1(c2ccc3nc(C(=O)N4CC[C@H](N5CCc6ccccc6C5)[C@@H](O)C4)cn3c2)CC1` [Example 125, 1-(2-((3S,4S)-4-(3,4-dihydroisoquinolin-2(1H)-yl)-3-hydroxypiperidine-1-carbonyl)imidazo[1,2-a]pyridin-6-yl)cyclopropane-1-carbonitrile]: 1750 nM, roughly 58 nM and 13700 nM.
`O=C(c1nn2cc(Br)cnc2c1Cl)N1CC[C@H](N2CCc3ccccc3C2)[C@@H](O)C1` [Example 133, (6-bromo-3-chloropyrazolo[1,5-a]pyrimidin-2-yl)[(3S,4S)-4-(3,4-dihydroisoquinolin-2(1H)-yl)-3-hydroxypiperidin-1-yl]methanone]: the EC50 on PRMT5 was determined as 140 nM; in test [1] (setting [3]) it was 3.2 nM; in test [1] (setting [4]), 569 nM.
Consider `CC1(C)CC(C2Oc3ccc(C(=O)N4CC[C@H](N5CCc6ccccc6C5)[C@@H](O)C4)cc3NC2=O)CO1` (single isomer, unassigned) [Example 84], for which the EC50 was 5.6 nM at PRMT5 and 0.9 nM in test [1] (setting [2]).
`Cc1nc2nc(C(=O)N3CC[C@H](N4CCc5ccccc5C4)[C@@H](O)C3)cn2cc1Br` [Example 67, (6-bromo-7-methylimidazo[1,2-a]pyrimidin-2-yl)((3S,4S)-4-(3,4-dihydroisoquinolin-2(1H)-yl)-3-hydroxypiperidin-1-yl)methanone]: the EC50 at PRMT5 worked out at 49 nM; in test [1] (setting [3]), 0.6 nM; in test [1] (setting [4]), 53 nM.
Turning to `CO[C@H](C)c1cc(C(C)C)cn2cc(C(=O)N3CC[C@H](N4CCc5ccccc5C4)[C@@H](O)C3)nc12` [Example 58, [(3S,4S)-4-(3,4-dihydroisoquinolin-2(1H)-yl)-3-hydroxypiperidin-1-yl]{8-[(1R)-1-methoxyethyl]-6-(propan-2-yl)imidazo[1,2-a]pyridin-2-yl}methanone], the EC50 came out at 0.6 nM at PRMT5 and 0.3 nM in test [1] (setting [2]).
The matching figures for `CC1(C)CC(C2Oc3ccc(C(=O)N4CC[C@H](N5CCc6ccccc6C5)[C@@H](O)C4)cc3NC2=O)CO1` (single isomer, unassigned) [Example 85]: 6.4 nM and 1.3 nM.
As to `CC(=O)N1CC2CC1CC2Nc1cc(C(=O)N2CC[C@H](N3CCc4ccccc4C3)[C@@H](O)C2)c(F)cn1` (single isomer, unassigned) [Example 120], the EC50 at PRMT5 stood at 316 nM; in test [1] (setting [3]) it was 20 nM; in test [1] (setting [4]), 5490 nM.
As to `CCC(=O)N1CCC(Nc2cc(C(=O)N3CC[C@H](N4CCc5ccccc5C4)[C@@H](O)C3)c(F)cn2)CC1` [Example 111, 1-(4-((4-((3S,4S)-4-(3,4-dihydroisoquinolin-2(1H)-yl)-3-hydroxypiperidine-1-carbonyl)-5-fluoropyridin-2-yl)amino)piperidin-1-yl)propan-1-one], the EC50 was found to be 6.1 nM on PRMT5 and 1.4 nM in test [1] (setting [2]).

These data come from patent US12595248B2, “PRMT5 inhibitors” (Merck Sharp & Dohme LLC, priority 2019, dated 2026).
